This note sets out measurements from patent US11807881B2, “Polypeptide, fusion polypeptide, and antibiotic against gram-negative bacteria comprising same” (priority 2020, dated 2023).

Assay [1] relates to Pseudomonas aeruginosa PA01. The experiment in a line: Galleria mellonella Pseudomonas aeruginosa infected model, viability. Conditions: PA01 50 CFU/larva; LNT101 0.6 or 6 μg/larva, Colistin 0.5 μg/larva; observation for 72 hours. Type of assay: in vivo. On the procedure:
The Pseudomonas aeruginosa killing ability of the endolysin LNT101 was also confirmed in vivo. As an animal model for the in vivo effectivity evaluation, Galleria mellonella was used. The Galleria mellonella model was divided into the healthy group (non-infection group), Pseudomonas aeruginosa infected group (drug non-administration group), 2 LNT101 administration groups in which LNT101 was administered into the infection model, Colistin administration group in which colistin was administered into the Pseudomonas aeruginosa infected model, and combination administration group in which LNT101 and colistin were administered in combination into the Pseudomonas aeruginosa infected model to progress an experiment, and 10 of Galleria mellonella per each group was used.
The Pseudomonas aeruginosa infected model was prepared by infecting Pseudomonas aeruginosa PA01 at the LD80 concentration, 50 CFU/larva, and LNT101 was administered at 0.6 μg/larva (3 mg/Kg) and 6 μg/larva (30 mg/Kg), respectively. Colistin was administered at 0.5 μg/larva (2.5 mg/Kg), and for administration in combination, Colistin at 0.5 μg/larva (2.5 mg/Kg) and LNT101 at 6 μg/larva (30 mg/Kg) were administered. […] In particular, in the LNT101 6 μg/larva (30 mg/Kg) administration group, the viability of 30% was confirmed.

In the next assay the test system is P. aeruginosa. Briefly: MIC of polymyxin-based antibiotics with LNT101 (broth microdilution). The class given is cell-based. Conditions: for reduction of MIC of the polymyxin-based antibiotic in combination with LNT101: LNT101 endolysin 1 μM; for MIC of antibiotics: P. aeruginosa 1×10^5 CFU/ml, 37° C. 18 hours, combination with LNT101 endolysin 1 μM, otherwise PBS. On the procedure:
The synergy effect by treatment in combination of the polymyxin-based antibiotic having a mechanism acting on the cell membrane of bacterium and endolysin LNT101 was confirmed. Specifically, polymyxin B (32 μg/ml-0.03 μg/ml) and colistin (128 μg/ml-0.1 μg/ml) were diluted by ½ per well in a microplate, and then a LNT101 endolysin 1 μM combination treatment group and the same amount of PBS treatment group was made. In all wells, P. aeruginosa 1×10^5 CFU/ml was treated by total 100 μl. After that, they were cultured at 37° C. for 18 hours.
The MIC change of the polymyxin-based antibiotic by combination treatment of the polymyxin-based antibiotic (polymyxin B, Colistin) and LNT101 endolysin at various concentrations was confirmed, and shown in Table 3 below.

In another assay the test system is E. coli(ATCC 8739). Briefly: MIC of polymyxin-based antibiotics with LNT102 (broth microdilution). The class given is cell-based. Conditions: + PBS or + LNT102 endolysin 1 μM, 37° C. 18 hours. On the procedure: (§1) A synergy effect by combination treatment of a polymyxin-based antibiotic having a mechanism acting on the cell membrane of bacterium and endolysin LNT102 purified in Example 2.2 was confirmed. Specifically, after treating 4 μg/ml Polymyxin B to the 96 well microplate row A, serial dilution was performed by ½ in rows B-G. Polymyxin was not treated to the row H. After treating 8 μg/ml Colistin to the 96 well microplate row A, a combination treatment group in which LNT102 endolysin 1 μM was further treated and a PBS treatment group in the same amount were made. All wells were treated with Pseudomonas aeruginosa and Escherichia coli in an amount of 1×10^5 CFU/ml, total 100 μl, respectively. After that, they were cultured at 37° C. for 18 hours.
(§2) The MIC change of the polymyxin-based antibiotics by combination treatment of the polymyxin-base antibiotics (polymyxin B, Colistin) at various concentrations and LNT102 endolysin was measured and shown in Table 5 below.
A general note: Broth dilution looks for growth in wells or tubes with falling amounts of substance.

In assay [2] the test system is P. aeruginosa (ATCC 27853). The description is as above. The class given is cell-based. As to conditions: + PBS or + LNT102 endolysin 1 μM, 37° C. 18 hours. On the procedure: as §1, §2
Assay [3] deals with A. baumannii (ATCC 19606). The description is as above. Type of assay: cell-based. Conditions: + PBS or + LNT102 endolysin 1 μM, 37° C. 18 hours.
In another assay the test system is gram negative bacteria. Briefly: MIC change of polymyxin-based antibiotics with LNT102, all strains of Table 5. Type of assay: cell-based, P. aeruginosa, A. baumannii, E. coli. Conditions: LNT102 endolysin 1 μM; maximum over the strains of Table 5. On the procedure: as §1, §2
For a further assay, the system named is gram negative bacterium. Briefly: CFU reduction evaluation on various gram negative bacterium. Type of assay: cell-based. On the procedure:
For this, Endolysin LNT101 and LNT102 at a concentration of 2 μM and each 1×10^6 CFU of Pseudomonas aeruginosa (PA01; ATCC 15692), Acinetobacter baumannii (ATCC 17978), Escherichia coli (ATCC 8739), Klebsiella pneumoniae (ATCC 13883), Enterobacter aerogenes (CCARM 16006), and Salmonella enteritidis (ATCC 13076) was added in reaction buffer (20 mM Tris-Cl, pH 7.5) so that the final volume was 200 μl, and it was left at 37° C. for 2 hours. In 2 hours, the number of colonies of each gram negative bacterium was confirmed, and the result was shown in FIG. 8 (in FIG. 8, PA90 represents endolysin LNT101 and mtPA90 represents endolysin LNT102, respectively).
The endolysin LNT102 at a concentration of 0.1, 0.5, 2.5 μM, and each 1×10^6 CFU of Pseudomonas aeruginosa, Acinetobacter baumannii, and Escherichia coli was added in reaction buffer (20 mM Tris-Cl, pH 7.5) so that the final volume was 200 μl, and it was left at 37° C. for 2 hours.
In order to confirm the killing ability against gram negative bacterium of the fusion polypeptide LNT103 prepared in Example 3.2, CFU reduction evaluation was performed for various gram negative bacterium. In order to perform the CFU reduction evaluation, 2 μM of each of LNT101, LNT102, and LNT103 prepared in Example 3, and 1×10^6 CFU of each of Pseudomonas aeruginosa (PA01; ATCC 15692), Acinetobacter baumannii (ATCC 17978), Escherichia coli (ATCC 8739), Klebsiella pneumoniae (ATCC 13883), and Enterobacter aerogenes (CCARM 16006) were added to reaction buffer (20 mM Tris-Cl, pH7.5) so that the final volume was 200 μl, and it was left at 37° C. for 2 hours. After that, the number of the colonies of each gram negative bacterium was confirmed to compare and evaluate the antibiotic effect of each polypeptide. As a control group, the PBS treatment group (treating PBS in the same volume as the fusion polypeptide) was used.
In addition, the same test was performed by using the fusion polypeptide LNT103, and CecA-LNT101 at a concentration of 2 μM, and the result was shown in FIG. 15. For comparison, the same test was performed for groups treated with LNT102 or PBS.
On the other hand, in order to compare the antibacterial activity in case that a protein other than endolysin (LNT102 or LNT101) was fused to Cecropin A, the killing ability against gram negative bacterium of the fusion polypeptide LNT103 and cecropin A-EGFP fusion protein (a protein in which EGFP (GenBank Accession No. AAB02572.1) having no endolysin activity by replacing LNT102 in LNT103) was evaluated. For this, the proteins were treated in an amount of 0.2 μM or 2 μM, respectively, to perform the CFU reduction test. […] In particular, it could be confirmed that the CFU Counting result for all the tested gram negative bacterium killed all bacterium treated with 0, when LNT103 2 μM was treated.
Furthermore, the killing ability against gram negative bacterium according to the concentration and/or treatment time of the fusion polypeptide LNT103 was tested. Specifically, the fusion polypeptide LNT103 at a concentration of 0.1, 0.3, 0.9, or 2.7 μM and 1×10^6 CFU of Pseudomonas aeruginosa (PA01; ATCC 15692) or Acinetobacter baumannii (ATCC 19606) were added to reaction buffer (20 mM Tris-Cl, pH7.5) so that the final volume was 200 μl, and it was left at 37° C. for 2 hours, and then the number of the colonies was confirmed, and the result was shown in A of FIG. 17.
In addition, the fusion polypeptide LNT103 at a concentration of 2 μM and 1×10^6 CFU of Pseudomonas aeruginosa (PA01; ATCC 15692) were added to reaction buffer (20 mM pH7.5) so that the final volume was 200 μl, and in 0, 20 minutes, 40 minutes and 60 minutes at 37° C., the number of the colonies was confirmed, and the result was shown in B of FIG. 17. […]

Turning to Colistin, the “viability of Galleria mellonella” value in assay [1] is reported as “the viability was increased”. The “reduction of MIC of the polymyxin-based antibiotic in combination with LNT101” value with P. aeruginosa came out at 50%. Further, the MIC of antibiotics in the assay with P. aeruginosa is 8 µg/mL. Further, the “MIC of the polymyxin-based antibiotic” value (with E. coli(ATCC 8739); in assay [2]; in assay [3]) was 2 µg/mL throughout. The “reduction of MIC of the polymyxin-based antibiotic in combination with LNT102” value in the assay with gram negative bacteria is on record as “reduced by 1/16 times at maximum”.

For polymyxin B, the “reduction of MIC of the polymyxin-based antibiotic in combination with LNT101” value in the assay with P. aeruginosa was determined as 50%. Also, the MIC of antibiotics in the assay with P. aeruginosa stood at 4 µg/mL. In addition, the “MIC of the polymyxin-based antibiotic” value (in the assay on E. coli(ATCC 8739); in assay [2]; in assay [3]) was 0.5 µg/mL each time. In the assay on gram negative bacteria, the “reduction of MIC of the polymyxin-based antibiotic in combination with LNT102” value was “reduced by 1/16 times at maximum”.

B1: LNT102: endolysin LNT101 variant with 15 amino acid mutations, SEQ ID NO: 6, purified with 6× His tag (protein)
chain: MGTVLKRGDRGSAVEDLQMKLNVAGYNLSADGIFGGDTEKAVRDVQAGAGLVVDGKVGPKTLYAIAKSATVPAKWEAIPFPTANKSRSAAMPTLNAVGAMTGVDSRLLATFASIESAFDYTVKAKTSSATGWFQFLDATWDDMIKAYGSKYGIPKDPTRALRKDPRANALMGAEFIKGNAAVLRPVINREPSDTDLYLAHFLGAGGAKKFLSADQKTLGEVLFPKPAKANPSIFSNKGVPRTLAEIYKLFEDKVSKHRA
modifications: 6xHis tag; synthetic_Endolysin LNT102
Take B1: the “killing ability (number of colonies)” value is “more excellent killing ability against gram negative bacterium in the same dose-, compared to LNT101” in the assay with gram negative bacterium (2 μM, 2 hours, 37° C., P. aeruginosa PA01, A. baumannii ATCC 17978, E. coli ATCC 8739, K. pneumoniae ATCC 13883, E. aerogenes CCARM 16006, S. enteritidis ATCC 13076); “had the killing ability against gram negative bacterium in all the tested treatment doses and time” in the assay with gram negative bacterium (0.1, 0.5, 2.5 μM, 30 minutes, 1 hour and 2 hours, Pseudomonas aeruginosa, Acinetobacter baumannii, Escherichia coli).

B2: CecA-LNT101: fusion polypeptide in which Cecropin A was fused to endolysin LNT101; SEQ ID NO: 16 used in the tests (protein)
chain: MASKWKLFKKIEKVGQNIRDGIIKAGPAVAVVGQATQIAKGSGSGSMGTVLKRGDRGSAVEDLQMKLRVAGYAVSADGIFGGDTEKAVRDFQASKALVVDGKVGPATLAELAKSATVPAKWEAIPFPTANKSRSAAMPTLNAVGAMTGTDSRLLATFASIESAFDYTVKASTSSATGWFQFLDATWDDMIKAHGSKYGIPKDPTRALRKDPRANALMGAEFLKGNAAVLRPVINREPSDTDLYLAHFLGAGGAKKFLSADQKTLGEVLFPKPAKANPSIFSNKGVPRTLAEIYKLFEDKVSKHRALEHHHHHH
modifications: synthetic_Fusion Polypeptide CecA-LNT101 with MAS, His tag, and extra sequence
In the case of B2, the counting result in the assay with gram negative bacterium (2 μM, all the tested bacterium (FIG. 15)) turned out to be 0 log CFU/ml.
